Measurements reported in patent publication US11406576B2, “Method for removing keratotic plugs” (KAO CORPORATION, priority 2017, dated 2022).

Legend:
[1] = Detergency against keratotic plugs: penetration of the sample into keratotic plugs; set-up: species or system human; details: keratotic plugs kept in contact with sample for 1 minute; results of Table 1
Protocol: (§1) Keratotic plugs in the nasal region were removed with “Biore Nose Pack (manufactured by Kao Corporation)”, the resulting keratotic plugs on the pack were gently taken out with tweezers.
(§2) The resulting keratotic plugs were placed on a slide glass and were covered with a cover glass, and 0.05 mL of a sample was dropwise added to an edge of the cover glass. Consequently, the sample entered into the gap between the slide glass and the cover glass by capillary phenomenon and was brought into contact with the keratotic plugs. The contact of the keratotic plugs with the sample was recorded with a digital microscope (VHX-5000, manufactured by Keyence Corporation, magnification: ×150), and the penetration of the sample into the keratotic plugs and the collapse state of the keratotic plugs were evaluated after one minute from the contact of the keratotic plugs with the sample. The results of each evaluation are shown in the columns “Detergency against keratotic plugs (penetration)” and “Detergency against keratotic plugs (during cleansing)” in Tables. The measurements were performed at 25° C.
(§3) The penetration was relatively evaluated by 11 criteria from the state 1 “the sample hardly penetrated into the keratotic plug” to the state 11 “the sample penetrated to the center of the keratotic plug”. The collapsibility by the detergency against keratotic plugs was relatively evaluated by 11 criteria from the state 1 “almost no change is observed in the external appearance of the keratotic plug” to the state 11 “peeling or separation is observed in the area from the surface layer to the central portion of the keratotic plug (the initial appearance of the keratotic plug is not retained)”.

[2] = system: insoluble protein (zein protein); assay: Effect of suppressing protein aggregation (precipitation of insoluble protein); details: results of Table 1
Protocol: Thirty milliliters of a sample and 0.06 g of an insoluble protein (zein protein) were placed in a 35-mL standard glass bottle, and the concentration of the insoluble protein was adjusted to 0.2 mass % (test sample). Separately, a standard sample was prepared by using water instead of the sample and adjusting the concentration of the insoluble protein to 0.2 mass %. Subsequently, the standard glass bottles were sufficiently shaken and stirred up and down (shake width: 15 cm, 20 times at a shake rate of 5 times per 3 seconds) in a thermostatic chamber of 25° C. and were left to stand for 3 minutes. The precipitation state of the insoluble protein was then visually verified, and the ratio of the amount of the precipitated standard sample to the amount of the precipitated test sample (the height of the precipitate in each standard glass bottle was measured as the precipitation amount), (precipitation amount of standard sample)/(precipitation amount of test sample), was calculated. A higher ratio indicates a higher effect of suppressing protein aggregation.

[3] = Detergency against keratotic plugs during cleansing (collapse state); set-up: species or system human; details: keratotic plugs kept in contact with sample for 1 minute; results of Table 1
Protocol: as §1, §2, §3

[4] = Detergency against keratotic plugs after washing with water (collapse state); set-up: species or system human; details: keratotic plugs kept in contact with water for 1 minute after contact with sample
From the text: as §3
After one minute from the contact of the keratotic plugs with the sample, KimWipes (registered trademark) was brought into contact with an edge of the cover glass to remove the sample under the cover glass. Subsequently, 0.05 mL of water was dropwise added to an edge of the cover glass. The sample dropwise added with water was recorded with the digital microscope, and the collapse state of the keratotic plugs was evaluated after one minute from the contact of the keratotic plugs with water according to the criteria for evaluating collapsibility of the keratotic plugs. The results of the evaluation are shown in the column “Detergency against keratotic plugs (after washing with water)” in Table. The measurements were performed at 25° C.

[5] = cited from earlier work

Compound	penetration into keratotic plugs (in words) [1]	action on proteins (in words) [2]	collapse of keratotic plugs on contact with sample (in words) [3]	collapse of keratotic plugs on contact with water after the sample (in words) [4]	solubility in water (in words) [5]
sodium polyoxyethylene (2) lauryl ether sulfate [POE (2) sodium lauryl sulfate]	hardly penetrated into the keratotic plugs	dissolve the proteins	did not progress		
CC(C)(N)CO [AMP, 2-amino-2-methyl-1-propanol]	penetrated into keratotic plugs			accelerating the collapse	readily dissolved in water
O=P([O-])([O-])[O-].[Na+].[Na+].[Na+] [trisodium phosphate]	hardly penetrated into keratotic plugs		did not progress	did not progress	
O=C([O-])O.[Na+] [sodium hydrogen carbonate]	hardly penetrated into keratotic plugs		did not progress	did not progress	
CC(N)(CO)CO [AMPD, 2-amino-2-methyl-1,3-propanediol]	penetrated into keratotic plugs			accelerating the collapse	
NC(CO)(CO)CO [Tris, 2-amino-2-hydroxymethyl-1,3-propanediol]	penetrated into keratotic plugs			accelerating the collapse	readily dissolved in water
O=P([O-])([O-])O.[Na+].[Na+] [disodium hydrogen phosphate]	hardly penetrated into keratotic plugs		did not progress	did not progress	
